pIC50: −log10 of the molar value. *1 amine or outer side, *2 acyl side, *3 side chain or, on linkers, in order; H or OH if unused. Where a SMILES comes first, the peptide text is derived from it. Bridges are numbered along the chain shown (N, C = ends). [ ]: non-standard residue; d: D form. 2Nal = N[C@@H](Cc1ccc2ccccc2c1)C(=O)O; AEF = NCCOc1ccc(C[C@H](N)C(=O)O)cc1; X1 = O=C(Cc1ccc(CN[*:1])cc1)[*:2]; 3Pal = N[C@@H](Cc1cccnc1)C(=O)O; αMeL = CC(C)C[C@](C)(N)C(=O)O; Dab = NCC[C@H](N)C(=O)O; Sar = CNCC(=O)O
These compounds were tested against T1, human IL-23R (Homo sapiens, UniProt Q5VWK5) (assay: biochemical). Conditions: not given.
T1 sequence (Q5VWK5 22-629): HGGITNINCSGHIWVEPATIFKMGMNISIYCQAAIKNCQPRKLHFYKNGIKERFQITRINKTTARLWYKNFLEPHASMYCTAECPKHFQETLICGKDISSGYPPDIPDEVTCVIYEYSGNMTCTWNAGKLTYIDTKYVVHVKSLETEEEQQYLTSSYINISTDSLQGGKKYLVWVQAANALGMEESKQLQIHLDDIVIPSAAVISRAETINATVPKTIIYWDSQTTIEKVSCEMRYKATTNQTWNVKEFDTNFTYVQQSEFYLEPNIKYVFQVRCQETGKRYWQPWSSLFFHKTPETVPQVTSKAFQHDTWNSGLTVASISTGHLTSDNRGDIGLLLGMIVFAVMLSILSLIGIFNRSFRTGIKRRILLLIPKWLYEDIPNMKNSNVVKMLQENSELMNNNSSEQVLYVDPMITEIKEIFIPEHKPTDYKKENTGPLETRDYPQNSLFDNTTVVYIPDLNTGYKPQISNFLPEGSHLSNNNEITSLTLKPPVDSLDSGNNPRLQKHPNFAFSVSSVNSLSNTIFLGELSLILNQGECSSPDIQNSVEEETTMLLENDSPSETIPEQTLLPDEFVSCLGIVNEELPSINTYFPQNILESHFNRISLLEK
In short: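 BRET displacement of a TAMRA-labelled reference compound from N-terminal Nanoluc-IL-23R fusion protein in membranes from stably transfected HEK293 cells. Incubation 2 h at room temperature, then Nanoluc substrate was added and the TAMRA/Nanoluc ratio read. IC50 and maximal displacement came from 4-parameter logistic fits.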

| SMILES | % displacement (hIL-23R binding) [%] | pIC50 |
| --- | --- | --- |
| CC(C)C[C@]1(C)NC(=O)[C@H](Cc2ccc3ccccc3c2)NC(=O)[C@H](Cc2ccc(OCCN)cc2)NC(=O)[C@@H]2CCNC(=O)CC[C@H](NC(=O)[C@H](CO)NC(=O)Cc3ccc(cc3)CNC(=O)CC[C@@H](C(=O)N[C@@H](CCN)C(=O)N[C@H](Cc3cccnc3)C(N)=O)NC1=O)C(=O)N[C@@H](Cc1c[nH]c3ccccc13)C(=O)N[C@@H](CCC(N)=O)C(=O)N2 [Compound 5, [4-Aminomethyl-phenylacetyl](1c)*SE(2c)WQ[Dab](2c)[Y(2-aminoethoxy)][2-Nal][2-Me-Leu]E(1c)[Dab][{d}3-(3-Pyridyl)-Ala]-[NH2]] | 99 | 10.03 |
| CC(C)C[C@]1(C)NC(=O)[C@H](Cc2ccc3ccccc3c2)NC(=O)[C@H](Cc2ccc(OCCN)cc2)NC(=O)[C@@H]2CCNC(=O)CC[C@H](NC(=O)[C@H](CO)NC(=O)Cc3ccc(cc3)CNC(=O)CC[C@@H](C(=O)N[C@@H](CCN)C(=O)NCCCCc3cccnc3)NC1=O)C(=O)N[C@@H](Cc1c[nH]c3ccccc13)C(=O)N[C@@H](CCC(N)=O)C(=O)N2 [Compound 6, [4-Aminomethyl-phenylacetyl](1c)*SE(2c)WQ[Dab](2c)[Y(2-aminoethoxy)][2-Nal][2-Me-Leu]E(1c)[Dab]-[NH-(4-(pyridin-3-yl)butanyl)]] | 103 | – |
| CC(C)C[C@]1(C)NC(=O)[C@H](Cc2ccc3ccccc3c2)NC(=O)[C@H](Cc2ccc(OCCN)cc2)NC(=O)[C@@H]2CCNC(=O)CC[C@H](NC(=O)[C@H](CO)NC(=O)Cc3ccc(cc3)CNC(=O)CC[C@@H](C(=O)N[C@@H](CCN)C(=O)NCCc3cccnc3)NC1=O)C(=O)N[C@@H](Cc1c[nH]c3ccccc13)C(=O)N[C@@H](CCC(N)=O)C(=O)N2 [Compound 7, [4-Aminomethyl-phenylacetyl](1c)*SE(2c)WQ[Dab](2c)[Y(2-aminoethoxy)][2-Nal][2-Me-Leu]E(1c)[Dab]-[NH-(2-(pyridin-3-yl)ethyl)]] | – | 10.92 |
| CC(C)C[C@]1(C)NC(=O)[C@H](Cc2ccc3ccccc3c2)NC(=O)[C@H](Cc2ccc(OCCN)cc2)NC(=O)[C@@H]2CCNC(=O)CC[C@H](NC(=O)[C@H](CO)NC(=O)Cc3ccc(cc3)CNC(=O)CC[C@@H](C(=O)N[C@@H](CCN)C(=O)N[C@@H](Cc3cccnc3)C(=O)N(C)CC(N)=O)NC1=O)C(=O)N[C@@H](Cc1c[nH]c3ccccc13)C(=O)N[C@@H](CCC(N)=O)C(=O)N2 [Compound 9, [4-Aminomethyl-phenylacetyl](1c)*SE(2c)WQ[Dab](2c)[Y(2-aminoethoxy)][2-Nal][2-Me-Leu]E(1c)[Dab][3-(3-Pyridyl)-Ala][Sar]-[NH2]] ([X1]SEWQ[Dab][AEF][2Nal][αMeL]E[Dab][3Pal][Sar]-NH2; lactam 3-6, N-10) | 100 | 11.28 |
| CC(C)C[C@]1(C)NC(=O)[C@H](Cc2ccc3ccccc3c2)NC(=O)[C@H](Cc2ccc(OCCN)cc2)NC(=O)[C@@H]2CCNC(=O)CC[C@H](NC(=O)[C@H](CO)NC(=O)Cc3ccc(cc3)CNC(=O)CC[C@@H](C(=O)N[C@@H](CCN)C(=O)N[C@@H](Cc3c[nH]cn3)C(=O)N[C@@H](Cc3cccnc3)C(N)=O)NC1=O)C(=O)N[C@@H](Cc1c[nH]c3ccccc13)C(=O)N[C@@H](CCC(N)=O)C(=O)N2 [Compound 12, [4-Aminomethyl-phenylacetyl](1c)*SE(2c)WQ[Dab](2c)[Y(2-aminoethoxy)][2-Nal][2-Me-Leu]E(1c)[Dab]H[3-(3-Pyridyl)-Ala]-[NH2]] ([X1]SEWQ[Dab][AEF][2Nal][αMeL]E[Dab]H[3Pal]-NH2; lactam 3-6, N-10) | 104 | 10.24 |

More lines, now with the values ahead:

| % displacement (hIL-23R binding) [%] | pIC50 | SMILES |
| --- | --- | --- |
| 99 | 10.47 | CC(C)C[C@]1(C)NC(=O)[C@H](Cc2ccc3ccccc3c2)NC(=O)[C@H](Cc2ccc(OCCN)cc2)NC(=O)[C@@H]2CCNC(=O)CC[C@H](NC(=O)[C@H](CO)NC(=O)Cc3ccc(cc3)CNC(=O)CC[C@@H](C(=O)N[C@@H](CCN)C(=O)N[C@@](C)(Cc3cccnc3)C(N)=O)NC1=O)C(=O)N[C@@H](Cc1c[nH]c3ccccc13)C(=O)N[C@@H](CCC(N)=O)C(=O)N2 [Compound 3, [4-Aminomethyl-phenylacetyl](1c)*SE(2c)WQ[Dab](2c)[Y(2-aminoethoxy)][2-Nal][2-Me-Leu]E(1c)[Dab][2-Me-3-(3-Pyridyl)-Ala]-[NH2]] |
| 111 | – | CC(C)C[C@]1(C)NC(=O)[C@H](Cc2ccc3ccccc3c2)NC(=O)[C@H](Cc2ccc(OCCN)cc2)NC(=O)[C@@H]2CCNC(=O)CC[C@H](NC(=O)[C@H](CO)NC(=O)Cc3ccc(cc3)CNC(=O)CC[C@@H](C(=O)N[C@@H](CCN)C(=O)N(C)[C@@H](Cc3cccnc3)C(N)=O)NC1=O)C(=O)N[C@@H](Cc1c[nH]c3ccccc13)C(=O)N[C@@H](CCC(N)=O)C(=O)N2 [Compound 4, [4-Aminomethyl-phenylacetyl](1c)*SE(2c)WQ[Dab](2c)[Y(2-aminoethoxy)][2-Nal][2-Me-Leu]E(1c)[Dab][N-Me-3-(3-Pyridyl)-Ala]-[NH2]] |
| 103 | 11.01 | CNC(=O)[C@H](Cc1cccnc1)NC(=O)[C@H](CCN)NC(=O)[C@@H]1CCC(=O)NCc2ccc(cc2)CC(=O)N[C@@H](CO)C(=O)N[C@H]2CCC(=O)NCC[C@H](NC(=O)[C@H](CCC(N)=O)NC(=O)[C@H](Cc3c[nH]c4ccccc34)NC2=O)C(=O)N[C@@H](Cc2ccc(OCCN)cc2)C(=O)N[C@@H](Cc2ccc3ccccc3c2)C(=O)N[C@@](C)(CC(C)C)C(=O)N1 [Compound 8, [4-Aminomethyl-phenylacetyl](1c)*SE(2c)WQ[Dab](2c)[Y(2-aminoethoxy)][2-Nal][2-Me-Leu]E(1c)[Dab][3-(3-Pyridyl)-Ala]-[NHMe]] |
| 91 | 11.24 | CC(C)C[C@]1(C)NC(=O)[C@H](Cc2ccc3ccccc3c2)NC(=O)[C@H](Cc2ccc(OCCN)cc2)NC(=O)[C@@H]2CCNC(=O)CC[C@H](NC(=O)[C@H](CO)NC(=O)Cc3ccc(cc3)CNC(=O)CC[C@@H](C(=O)N[C@@H](CCN)C(=O)N[C@@H](Cc3cccnc3)C(=O)N[C@H](Cc3c[nH]cn3)C(N)=O)NC1=O)C(=O)N[C@@H](Cc1c[nH]c3ccccc13)C(=O)N[C@@H](CCC(N)=O)C(=O)N2 [Compound 10, [4-Aminomethyl-phenylacetyl](1c)*SE(2c)WQ[Dab](2c)[Y(2-aminoethoxy)][2-Nal][2-Me-Leu]E(1c)[Dab][3-(3-Pyridyl)-Ala][{d}H]-[NH2]] ([X1]SEWQ[Dab][AEF][2Nal][αMeL]E[Dab][3Pal][dH]-NH2; lactam 3-6, N-10) |
| 100 | 10.23 | CC(C)C[C@]1(C)NC(=O)[C@H](Cc2ccc3ccccc3c2)NC(=O)[C@H](Cc2ccc(OCCN)cc2)NC(=O)[C@@H]2CCNC(=O)CC[C@H](NC(=O)[C@H](CO)NC(=O)Cc3ccc(cc3)CNC(=O)CC[C@@H](C(=O)N[C@@H](CCN)C(=O)N[C@H](Cc3c[nH]cn3)C(N)=O)NC1=O)C(=O)N[C@@H](Cc1c[nH]c3ccccc13)C(=O)N[C@@H](CCC(N)=O)C(=O)N2 [Compound 13, [4-Aminomethyl-phenylacetyl](1c)*SE(2c)WQ[Dab](2c)[Y(2-aminoethoxy)][2-Nal][2-Me-Leu]E(1c)[Dab][{d}H]-[NH2]] |

Same assay, conditions: read-out: % displacement (hIL-23R binding)

| Emax [%] | SMILES |
| --- | --- |
| 102 | CC(C)C[C@]1(C)NC(=O)[C@H](Cc2ccc3ccccc3c2)NC(=O)[C@H](Cc2ccc(OCCN)cc2)NC(=O)[C@@H]2CCNC(=O)CC[C@H](NC(=O)[C@H](CO)NC(=O)Cc3ccc(cc3)CNC(=O)CC[C@@H](C(=O)N[C@@H](CCN)C(=O)NCCc3cccnc3)NC1=O)C(=O)N[C@@H](Cc1c[nH]c3ccccc13)C(=O)N[C@@H](CCC(N)=O)C(=O)N2 [Compound 7, [4-Aminomethyl-phenylacetyl](1c)*SE(2c)WQ[Dab](2c)[Y(2-aminoethoxy)][2-Nal][2-Me-Leu]E(1c)[Dab]-[NH-(2-(pyridin-3-yl)ethyl)]] |

— patent EP4471049A1 (Zealand Pharma A/S, priority 2023, dated 2024)
